Columns and labels:
[1] = tested on: patients with PD and constipation; test: Phase 2 trial Stage 1: adverse events
Protocol: In Stage 1, ten (10) PD patients received a single escalating dose of squalamine (ENT-01) every 3-7 days beginning at 25 mg and continuing up to 200 mg or the limit of tolerability, followed by 2-weeks of wash-out. Duration of this part of the trial was 22-57 days. The 10 subjects in the sentinel group were assigned to Cohort 1 and participated in 8 single dosing periods. Tolerability limits included diarrhea or vomiting.
Each dose period was staggered, so that subjects 1-2 were administered a single dose of the drug at the lowest dose of 25 mg. Once 24 hours have elapsed, and provided there are no safety concerns, the patient was sent home and brought back on day 4-8 for the next dose. During the days the subjects are home, they completed the daily diaries and e-mailed them to the study coordinators. Subjects 3-10 were dosed after the first 2 subjects have been observed for 72 hours, i.e. on Day 4. Subjects 1-2 were also brought back on Day 4-8 and given a single dose of 50 mg. Once another 24 hours have elapsed and provided there are no safety concerns, the patients were all sent home and instructed to return on Day 7 for the next dosing level. This single dosing regimen was continued until each subject was given a single dose of 200 mg or has reached a dose limiting toxicity (DLT). DLT was the dose which induces repeated vomiting, diarrhea, abdominal pain or symptomatic postural hypotension within 24 hours of dosing.
Adverse events were coded using the current version of MedDRA. Severity of AEs were assessed by investigators according to CTCAE (v4.03): Grade 1 is labeled as Mild, Grade 2 as Moderate, and Grade 3 and above as Severe. […] The number (percentage) of subjects who experienced an AE during escalation and fixed dosing periods were summarized by dose level and overall for each stage. The denominator for calculating the percentages were based on the number of subjects ever exposed to each dose and overall.

[2] = Pharmacokinetics of orally administered squalamine (ENT-01) in Stage 1; assay type: in vivo, human; details: for AUC0-8 hr / AUC0-16 hr / Tmax (Median Value) / Cmax: Stage 1, oral; for Cmax: squalamine ion, mean
Protocol: Pharmakokinetics: PK data were collected on the 10 patients enrolled in Stage 1 and 10 patients enrolled in Stage 2 to determine the extent of systemic absorption. In Stage 1, PK data were obtained at each visit, pre-medication, at 1, 2, 4, 8 and 24 hours (Table 14). In Stage 2, PK was measured on days 1 and 6 of the randomization period pre-medication, at 1, 2, 4 and 8 hours (Table 15). […] Hao et al. 2003). The mean Cmax, Tmax and T1/2 and AUC of the squalamine ion following squalamine (ENT-01) oral dosing for Stage 1 patients. […] The mean Cmax, Tmax and T1/2 and AUC of the squalamine ion following squalamine (ENT-01) oral dosing for Stage 2 patients. The PK analyses are only approximate, as the lower limit of the validated concentration range was 0.5 ng/ml.

αS = αS (Homo sapiens, UniProt P37840); details: in vitro (Perni et al. 2017); cited from earlier work
[3] = Pharmacokinetics of orally administered squalamine (ENT-01) in Stage 2; assay type: in vivo, human; details: Stage 2, oral; for Cmax: squalamine ion, mean
Protocol: Pharmakokinetics: PK data were collected on the 10 patients enrolled in Stage 1 and 10 patients enrolled in Stage 2 to determine the extent of systemic absorption. In Stage 1, PK data were obtained at each visit, pre-medication, at 1, 2, 4, 8 and 24 hours (Table 14). In Stage 2, PK was measured on days 1 and 6 of the randomization period pre-medication, at 1, 2, 4 and 8 hours (Table 15).
The mean Cmax, Tmax and T1/2 and AUC of the squalamine ion following squalamine (ENT-01) oral dosing for Stage 1 patients. The PK analyses are only approximate, as the lower limit of the validated concentration range was 10 ng/ml; most of the measured concentrations fell below that value. The mean Cmax, Tmax and T1/2 and AUC of the squalamine ion following squalamine (ENT-01) oral dosing for Stage 2 patients. The PK analyses are only approximate, as the lower limit of the validated concentration range was 0.5 ng/ml.

[4] = tested on: mice with constipation due to overexpression of human αS; test: Oral squalamine in mice with constipation due to overexpression of human αS; assay type: in vivo, mouse; details: orally administered (West et al, manuscript in preparation)
[5] = Stage 1, 10 dosed, Unrelated to ENT-01

SMILES: CC(C)[C@@H](CC[C@@H](C)[C@H]1CC[C@H]2[C@@H]3[C@H](O)C[C@H]4C[C@@H](NCCCNCCCCN)CC[C@]4(C)[C@H]3CC[C@]12C)OS(=O)(=O)O (single isomer, unassigned; ent-01) [ENT-01]
- AEs confined to the GI tract ([1]; Stage 1): 88%
- Diarrhea, patients ([1]; Stage 1, 4/10): 40%
- nausea, patients ([1]; Stage 1, 4/10): 40%
- Abdominal pain, Mild ([1]; Stage 1, 10 dosed): 2(20) n, %
- Abdominal pain, Moderate ([1]; Stage 1, 10 dosed): 3(30) n, %
- Blood in urine, Moderate ([1]; Stage 1, 10 dosed): 0 n, %
- Diarrhea, Mild ([1]; Stage 1, 10 dosed): 1(10) n, %
- Diarrhea, Moderate ([1]; Stage 1, 10 dosed): 3(30) n, %
- Diarrhea, Severe ([1]; Stage 1, 10 dosed): 0 n, %
- Difficulty falling asleep, Mild ([1]; Stage 1, 10 dosed): 0 n, %
- Difficulty falling asleep, Moderate ([1]; Stage 1, 10 dosed): 0 n, %
- Dizziness, Mild ([1]; Stage 1, 10 dosed): 0 n, %
- Dizziness, Moderate ([1]; Stage 1, 10 dosed): 0 n, %
- Flatulence, Mild ([1]; Stage 1, 10 dosed): 2(20) n, %
- Flatulence, Moderate ([1]; Stage 1, 10 dosed): 0 n, %
- Headache, Mild ([1]; Stage 1, 10 dosed): 1(10) n, %
- Headache, Moderate ([1]; Stage 1, 10 dosed): 0 n, %
- Increased urinary frequency, Mild ([1]; Stage 1, 10 dosed): 0 n, %
- Increased urinary frequency, Moderate ([1]; Stage 1, 10 dosed): 0 n, %
- Loss of appetite, Moderate ([1]; Stage 1, 10 dosed): 0 n, %
- Lower GI bleed, Severe ([1]; Stage 1, 10 dosed): 0 n, %
- Nausea, Mild ([1]; Stage 1, 10 dosed): 4(40) n, %
- Nausea, Moderate ([1]; Stage 1, 10 dosed): 0 n, %
- Skin lesions-rash, Mild ([1]; Stage 1, 10 dosed): 0 n, %
- Skin lesions-rash, Moderate ([1]; Stage 1, 10 dosed): 0 n, %
- Urinary retention, Mild ([1]; Stage 1, 10 dosed): 0 n, %
- Urinary retention, Moderate ([1]; Stage 1, 10 dosed): 0 n, %
- Vomiting, Mild ([1]; Stage 1, 10 dosed): 1(10) n, %
- Vomiting, Moderate ([1]; Stage 1, 10 dosed): 0 n, %
- Worsening acid reflux, Mild ([1]; Stage 1, 10 dosed): 0 n, %
- Worsening acid reflux, Moderate ([1]; Stage 1, 10 dosed): 0 n, %
- Worsening hemorrhoid, Mild ([1]; Stage 1, 10 dosed): 0 n, %
- Worsening hemorrhoid, Moderate ([1]; Stage 1, 10 dosed): 0 n, %
- Blood in urine, Mild [1, 5]: 1(10) n, %
- Loss of appetite, Mild [1, 5]: 1(10) n, %
- Common adverse events by dose: Diarrhea ([1]; Stage 1, dose 25 mg): 1
- Common adverse events by dose: Nausea ([1]; Stage 1, dose 25 mg): 0
- Common adverse events by dose: Vomiting ([1]; Stage 1, dose 25 mg): 0
- Common adverse events by dose: Diarrhea ([1]; Stage 1, dose 50 mg): 1
- Common adverse events by dose: Nausea ([1]; Stage 1, dose 50 mg): 0
- Common adverse events by dose: Vomiting ([1]; Stage 1, dose 50 mg): 0
- Common adverse events by dose: Diarrhea ([1]; Stage 1, dose 75 mg): 1
- Common adverse events by dose: Nausea ([1]; Stage 1, dose 75 mg): 0
- Common adverse events by dose: Vomiting ([1]; Stage 1, dose 75 mg): 0
- Common adverse events by dose: Diarrhea ([1]; Stage 1, dose 100 mg): 0
- Common adverse events by dose: Nausea ([1]; Stage 1, dose 100 mg): 1
- Common adverse events by dose: Vomiting ([1]; Stage 1, dose 100 mg): 1
- Common adverse events by dose: Diarrhea ([1]; Stage 1, dose 125 mg): 1
- Common adverse events by dose: Nausea ([1]; Stage 1, dose 125 mg): 2
- Common adverse events by dose: Vomiting ([1]; Stage 1, dose 125 mg): 1
- Common adverse events by dose: Diarrhea ([1]; Stage 1, dose 150 mg): 1
- Common adverse events by dose: Nausea ([1]; Stage 1, dose 150 mg): 0
- Common adverse events by dose: Vomiting ([1]; Stage 1, dose 150 mg): 0
- Common adverse events by dose: Diarrhea ([1]; Stage 1, dose 175 mg): 1
- Common adverse events by dose: Nausea ([1]; Stage 1, dose 175 mg): 1
- Common adverse events by dose: Vomiting ([1]; Stage 1, dose 175 mg): 0
- Common adverse events by dose: Diarrhea ([1]; Stage 1, dose 200 mg): 0
- Common adverse events by dose: Nausea ([1]; Stage 1, dose 200 mg): 2
- Common adverse events by dose: Vomiting ([1]; Stage 1, dose 200 mg): 0
- approximate oral bioavailability ([2]; Stage 1, oral dosing up to 200 mg (114 mg/m^2), compared with prior phase 1 IV pharmacokinetic data): about 0.1%
- AUC0-8 hr ([2]; dose 25 mg): 10.8 ng·h/mL
- AUC0-16 hr ([2]; dose 25 mg): 19.6 ng·h/mL
- Tmax (Median Value) ([2]; dose 25 mg): 1.0 h
- Cmax ([2]; dose 25 mg): 2.84 ng/mL
- AUC0-8 hr ([2]; dose 50 mg): 18.5 ng·h/mL
- AUC0-16 hr ([2]; dose 50 mg): 33.1 ng·h/mL
- Tmax (Median Value) ([2]; dose 50 mg): 2.0 h
- Cmax ([2]; dose 50 mg): 3.73 ng/mL
- AUC0-8 hr ([2]; dose 75 mg): 18.4 ng·h/mL
- AUC0-16 hr ([2]; dose 75 mg): 29.8 ng·h/mL
- Tmax (Median Value) ([2]; dose 75 mg): 2.0 h
- Cmax ([2]; dose 75 mg): 4.33 ng/mL
- AUC0-8 hr ([2]; dose 100 mg): 29.6 ng·h/mL
- AUC0-16 hr ([2]; dose 100 mg): 51.5 ng·h/mL
- Tmax (Median Value) ([2]; dose 100 mg): 2.0 h
- Cmax ([2]; dose 100 mg): 6.18 ng/mL
- AUC0-8 hr ([2]; dose 125 mg): 43.1 ng·h/mL
- AUC0-16 hr ([2]; dose 125 mg): 77.7 ng·h/mL
- Tmax (Median Value) ([2]; dose 125 mg): 2.0 h
- Cmax ([2]; dose 125 mg): 9.63 ng/mL
- AUC0-8 hr ([2]; dose 150 mg): 31.5 ng·h/mL
- AUC0-16 hr ([2]; dose 150 mg): 64.0 ng·h/mL
- Tmax (Median Value) ([2]; dose 150 mg): 2.0 h
- Cmax ([2]; dose 150 mg): 6.27 ng/mL
- AUC0-8 hr ([2]; dose 175 mg): 49.7 ng·h/mL
- AUC0-16 hr ([2]; dose 175 mg): 91.2 ng·h/mL
- Tmax (Median Value) ([2]; dose 175 mg): 2.0 h
- Cmax ([2]; dose 175 mg): 10.3 ng/mL
- AUC0-8 hr ([2]; dose 200 mg): 78.3 ng·h/mL
- AUC0-16 hr ([2]; dose 200 mg): 157 ng·h/mL
- Tmax (Median Value) ([2]; dose 200 mg): 2.0 h
- Cmax ([2]; dose 200 mg): 15.1 ng/mL
- oral bio-availability ([2]; estimated from PK of intravenously administered squalamine in prior clinical studies): less than 0.3%
- formation of aggregates of αS (αS): inhibit the formation of aggregates
- AUC0-8 hr ([3]; dose 75 mg): 59.0 ng·h/mL
- Tmax (Median Value) ([3]; dose 75 mg): 3.0 h
- Cmax ([3]; dose 75 mg): 10.0 ng/mL
- AUC0-8 hr ([3]; dose 100 mg): 70.3 ng·h/mL
- Tmax (Median Value) ([3]; dose 100 mg): 1.0 h
- Cmax ([3]; dose 100 mg): 17.7 ng/mL
- AUC0-8 hr ([3]; dose 175 mg): 66.8 ng·h/mL
- Tmax (Median Value) ([3]; dose 175 mg): 2.0 h
- Cmax ([3]; dose 175 mg): 11.8 ng/mL

SMILES: CC(C)[C@@H](CC[C@@H](C)[C@H]1CC[C@H]2[C@@H]3[C@H](O)C[C@H]4C[C@@H](NCCCNCCCCN)CC[C@]4(C)[C@H]3CC[C@]12C)OS(=O)(=O)O [squalamine]
- gastro-intestinal motility [4]: stimulates gastro-intestinal motility
